This is an account of results in ChEMBL document CHEMBL3576773, “Studies on the ATP Binding Site of Fyn Kinase for the Identification of New Inhibitors and Their Evaluation as Potential Agents against Tauopathies and Tumors” (J Med Chem, 2015).

The nature of series [1]: Cytotoxicity against human fibroblast at 2 uM after 48 hrs. The series is classed as cell-based.
The nature of series [2]: Anticancer activity against human U87 cells assessed as cell growth inhibition after 20 to 70 hrs by Real-time RTCA iCELLgence system. The series is classed as functional, cell-based, U-87MG ATCC. Conditions: U-87 MG; call rule not given here.
Series [3] deals with K562. Kind of series: Induction of apoptosis in human K562 cells assessed as accumulation of hypodiploid cells at 0.1 uM.
Series [4] can be described thus: Permeability of the compound by BBB-PAMPA-LC-UV analysis. In kind it is physicochemical. (In general: The PAMPA barrier holds no transporters, so it reflects passive diffusion.)
A short description of series [5]: Permeability of the compound by PAMPA-LC-UV analysis. In kind it is physicochemical.
The subject of series [6] is MDA-MB-231. Kind of series: Anticancer activity against human MDA-MB-231 cells assessed as cell growth inhibition after 20 to 70 hrs by Real-time RTCA iCELLgence system. The series is classed as functional, cell-based.
The nature of series [7]: Metabolic stability in human liver microsomes measured after 1 hr in presence of NADPH generating system. In kind it is ADME. To be noted: read-out: Stability. For orientation: Microsomes from liver hold many membrane-bound enzymes, among them those of drug oxidation.
For series [8], the system named is K562. Put plainly: Antiproliferative activity against human K562 cells assessed as vitality after 72 hrs by automatic cell counting analysis. Conditions: K562, 72 h. In kind it is functional, cell-based.
Series [9] in a line: Induction of apoptosis in Ph+ CML patient CD34+ early hematopoietic progenitor cells assessed as increase in apoptotic level at 2 uM after 48 hrs by Annexin V-FITC/Propidium iodide staining based FACSCalibur flow cytometry. The series is classed as functional, Homo sapiens. (A flow cytometer gives signals particle by particle.)
Series [10] addresses Tyrosine-protein kinase Fyn (Homo sapiens, UniProt P06241). Kind of series: Inhibition of human recombinant full-length Fyn using Src substrate peptide after 15 mins incubation by MicroBeta liquid scintillation counting analysis.
Series [11] deals with Liver microsome. Put plainly: Drug formation in human liver microsomes treated with 1-(2-Chloro-2-phenylethyl)-3-phenyl-1H-pyrazolo[3,4-d]-pyrimidin-4-amine hydrocloride measured after 1 hr by LC-UV-MS analysis. The series is classed as ADME.
The test system of series [12] is Liver microsome. Put plainly: Drug formation in human liver microsomes treated with 3-(4-Chlorophenyl)-1-(2-chloro-2-phenylethyl)-1H-pyrazolo[3,4-d]pyrimidin-4-amine measured after 1 hr by LC-UV-MS analysis. The series is classed as ADME.
Series [13] relates to Liver microsome. Put plainly: Drug formation in human liver microsomes treated with 1-(2-Chloro-2-phenylethyl)-3-(4-methyoxyphenyl)-1H-pyrazolo-[3,4-d]pyrimidin-4-amine measured after 1 hr by LC-UV-MS analysis. The series is classed as ADME.
The subject of series [14] is Liver microsome. Put plainly: Drug formation in human liver microsomes treated with 1-(2-Chloro-2-phenylethyl)-3-(4-methylphenyl)-1H-pyrazolo[3,4-d]pyrimidin-4-amine measured after 1 hr by LC-UV-MS analysis. In kind it is ADME.
Series [15] deals with Liver microsome. Kind of series: Drug formation in human liver microsomes treated with 1-(2-Chloro-2-phenylethyl)-3-(4-fluorophenyl)-1H-pyrazolo[3,4-d]pyrimidin-4-amine measured after 1 hr by LC-UV-MS analysis. In kind it is ADME.

Sequence of Tyrosine-protein kinase Fyn (P06241 whole entry): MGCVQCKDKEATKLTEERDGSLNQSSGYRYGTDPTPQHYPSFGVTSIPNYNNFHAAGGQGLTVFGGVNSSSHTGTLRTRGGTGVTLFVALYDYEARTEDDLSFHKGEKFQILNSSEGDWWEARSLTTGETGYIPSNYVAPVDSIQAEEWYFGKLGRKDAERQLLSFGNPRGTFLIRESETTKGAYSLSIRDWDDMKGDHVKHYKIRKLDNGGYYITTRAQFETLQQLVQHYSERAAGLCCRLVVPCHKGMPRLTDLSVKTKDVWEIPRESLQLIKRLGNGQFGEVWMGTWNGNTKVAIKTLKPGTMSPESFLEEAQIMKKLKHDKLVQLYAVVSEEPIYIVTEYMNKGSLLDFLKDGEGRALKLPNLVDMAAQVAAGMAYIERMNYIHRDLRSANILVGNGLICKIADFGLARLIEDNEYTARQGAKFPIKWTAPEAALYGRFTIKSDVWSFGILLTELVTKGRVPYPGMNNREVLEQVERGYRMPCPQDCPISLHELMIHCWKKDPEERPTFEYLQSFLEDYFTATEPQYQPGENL

Take `Cc1ccc(-c2nn(CC(Cl)c3ccccc3)c3ncnc(N)c23)cc1` (stereo not drawn): the Activity result in [1] was “Non-toxic”; in series [3] it was 50%; in [9], 30%. For the same compound, the IC50 – broadly, the concentration at which inhibition is half-maximal – in series [2] was determined as 780 nM; in series [6], 8300 nM; in series [8] it was 300 nM. Further, the Papp (commonly a coefficient for how fast a substance crosses the barrier) in [4] came to 11.5 ×10⁻⁶ cm/s; in series [5], 10.9 ×10⁻⁶ cm/s. Moreover, the remaining at 1 h in series [7] was determined as 90%.
Regarding `Cc1ccc(-c2cc(-c3ccccc3)c3c(N)c(C(=O)Nc4ccc(F)cc4)sc3n2)cc1`, the Ki (usually a dissociation constant, usually derived from enzyme kinetics or from competition with a known ligand) in [10] is on record as “Not Active”.
On the same count and under the same terms, under `Clc1cccc(Nc2nc(SC3CCCC3)nc3c2cnn3CC(Cl)c2ccccc2)c1` (stereo not drawn) stands “Not Active”; under `CCC(C)Sc1nc(NCCc2ccccc2)c2cnn(CC(Cl)c3ccccc3)c2n1` (stereo not drawn), “Not Active”; under `CCCCSc1nc(NCCc2ccccc2)c2cnn(CC(Cl)c3ccccc3)c2n1` (stereo not drawn), “Not Active”.
For the compound `Nc1ncnc2c1c(-c1ccccc1)nn2CC(O)c1ccccc1` (stereo not drawn), the Drug metabolism result in series [11], in series [12], in series [13], in series [14] and in [15] was “metabolite_detected” in each case.
For the compound `CC(Cn1nc(-c2ccc(Cl)cc2)c2c(N)ncnc21)c1ccccc1` (stereo not drawn), the Ki in [10] (read-out: Ki) came out at 780 nM.
For `ClC(Cn1ncc2c(NCCc3ccccc3)nc(SC3CCCC3)nc21)c1ccccc1` (stereo not drawn), the Ki result in series [10] is “Not Active”.
In the case of `CC(=O)c1ccc(-c2nn(CC(C)c3ccccc3)c3ncnc(N)c23)cc1` (stereo not drawn), the Ki in [10] (read-out: Ki) was 10000 nM.
Still for that read-out and setting: as for `COC(Cn1nc(-c2ccccc2)c2c(N)nc(SC)nc21)c1ccccc1` (stereo not drawn), the figure is 10000 nM.
As to `CCC(C)Sc1nc(NCc2ccccc2)c2cnn(CC(Cl)c3ccccc3)c2n1` (stereo not drawn), the Ki result in series [10] was “Not Active”.
On to `Fc1cccc(Nc2nc(SC3CCCC3)nc3c2cnn3CC(Cl)c2ccccc2)c1` (stereo not drawn), for which the inhibition constant Ki result in series [10] is “Not Active”.
With `ClC(Cn1ncc2c(NCCc3ccccc3)nc(SCCN3CCOCC3)nc21)c1ccccc1` (stereo not drawn), the Ki result in series [10] is “Not Active”.
Consider `Nc1ncnc2c1c(-c1ccccc1)nn2CC(Cl)c1ccccc1` (stereo not drawn), for which the Papp in series [4] worked out at 9.5 ×10⁻⁶ cm/s; in [5], 12.8 ×10⁻⁶ cm/s. The remaining at 1 h in series [7] turned out to be 78.9%. Also, the Ki in [10] (read-out: Ki) was found to be 900 nM.
As for `CNc1nc(SC)nc2c1c(-c1ccccc1)nn2CCc1ccccc1`, the Ki in series [10] (read-out: Ki) stood at 10000 nM.
For `Nc1ncnc2c1c(-c1ccc(Cl)cc1)nn2CC(Cl)c1ccccc1` (stereo not drawn), the Activity result in series [1] is reported as “Non-toxic”; in series [9] it was 35%. In addition, the figures for the IC50 in series [2], in series [6] and in [8] were 74 nM, 3700 nM and 560 nM, respectively. The Papp in series [4] was found to be 8.4 ×10⁻⁶ cm/s; in [5], 9.9 ×10⁻⁶ cm/s. The remaining at 1 h in series [7] was determined as 85.2%.
Take `Nc1ncnc2c1c(-c1ccc(O)cc1)nn2CC(Cl)c1ccccc1` (stereo not drawn): the Drug metabolism result in series [13] was “metabolite_detected”.
For `COc1ccc(-c2nn(CC(Cl)c3ccccc3)c3ncnc(N)c23)cc1` (stereo not drawn), the Papp was found to be 14.5 ×10⁻⁶ cm/s in series [4] and 17.5 ×10⁻⁶ cm/s in [5]. The remaining at 1 h in series [7] stood at 95.6%.
For `Nc1ncnc2c1c(-c1ccccc1)nn2CC(=O)c1ccccc1`, the Drug metabolism result in series [11], in series [12], in series [13], in series [14] and in series [15] was “metabolite_detected” throughout.
As for `CCc1ccc2[nH]c(=O)c(CN(Cc3ccc4c(c3)OCO4)C(=O)Nc3ccc(F)cc3)cc2c1`, the Ki in [10] (read-out: Ki) turned out to be 2100 nM.
`Nc1ncnc2c1c(-c1ccc(F)cc1)nn2CC(Cl)c1ccccc1` (stereo not drawn): the figures for the Papp in series [4] and in series [5] were 12.9 ×10⁻⁶ cm/s and 16.5 ×10⁻⁶ cm/s, respectively. In series [7], the remaining at 1 h worked out at 95.7%. Further, in [8], the IC50 was 12600 nM.
Consider `CCOc1ccc(-c2[nH]ncc2CN2CCN(S(=O)(=O)N3CCCC3)CC2)cc1`, for which the Ki in series [10] (read-out: Ki) stood at 2250 nM.
